US11396510B2, “GABAA receptor ligand” (Saniona A/S, priority 2018, dated 2022)
Entries after “also recorded” stand apart in the source; their conditions may differ.

Assays:
[1] = target: T1, α1β2γ2 GABAA receptors expressed in Xenopus laevis oocytes (Homo sapiens, UniProt P14867+P18507); assay: Oocyte two-electrode voltage clamp electrophysiology, α1β2γ2; format: cell-based; conditions: GABA at EC10-20, normalized to diazepam
T1 construct: expressed in transfected cells; host or cells: Xenopus laevis oocytes injected with cRNA
T1 sequence (P14867 28-456): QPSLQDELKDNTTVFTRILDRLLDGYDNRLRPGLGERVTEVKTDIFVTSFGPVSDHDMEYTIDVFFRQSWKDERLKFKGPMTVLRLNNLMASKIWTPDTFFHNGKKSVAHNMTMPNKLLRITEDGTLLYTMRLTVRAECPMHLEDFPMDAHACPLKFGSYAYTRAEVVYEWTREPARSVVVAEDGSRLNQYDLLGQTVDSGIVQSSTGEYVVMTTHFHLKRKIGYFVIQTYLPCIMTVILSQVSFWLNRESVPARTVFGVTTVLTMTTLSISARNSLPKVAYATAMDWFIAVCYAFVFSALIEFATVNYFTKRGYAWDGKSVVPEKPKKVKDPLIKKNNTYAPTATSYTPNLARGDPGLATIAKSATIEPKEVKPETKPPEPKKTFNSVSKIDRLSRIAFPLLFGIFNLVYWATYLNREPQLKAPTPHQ
T1 sequence (P47870 25-512 partner limits assumed): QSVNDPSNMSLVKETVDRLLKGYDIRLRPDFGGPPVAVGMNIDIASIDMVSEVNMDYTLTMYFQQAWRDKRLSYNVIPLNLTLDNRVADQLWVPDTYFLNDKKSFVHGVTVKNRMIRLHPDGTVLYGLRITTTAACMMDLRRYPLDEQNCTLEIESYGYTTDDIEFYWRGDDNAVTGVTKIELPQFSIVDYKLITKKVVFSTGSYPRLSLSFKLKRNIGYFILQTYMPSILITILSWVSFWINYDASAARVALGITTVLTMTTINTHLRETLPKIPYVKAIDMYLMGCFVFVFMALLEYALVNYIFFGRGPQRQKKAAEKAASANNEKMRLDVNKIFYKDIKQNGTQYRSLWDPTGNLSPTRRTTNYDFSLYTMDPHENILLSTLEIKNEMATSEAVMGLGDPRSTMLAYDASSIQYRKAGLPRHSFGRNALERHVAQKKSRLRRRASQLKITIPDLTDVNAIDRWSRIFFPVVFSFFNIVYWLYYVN
T1 sequence (P18507 40-467 isoform P18507-1 limits assumed): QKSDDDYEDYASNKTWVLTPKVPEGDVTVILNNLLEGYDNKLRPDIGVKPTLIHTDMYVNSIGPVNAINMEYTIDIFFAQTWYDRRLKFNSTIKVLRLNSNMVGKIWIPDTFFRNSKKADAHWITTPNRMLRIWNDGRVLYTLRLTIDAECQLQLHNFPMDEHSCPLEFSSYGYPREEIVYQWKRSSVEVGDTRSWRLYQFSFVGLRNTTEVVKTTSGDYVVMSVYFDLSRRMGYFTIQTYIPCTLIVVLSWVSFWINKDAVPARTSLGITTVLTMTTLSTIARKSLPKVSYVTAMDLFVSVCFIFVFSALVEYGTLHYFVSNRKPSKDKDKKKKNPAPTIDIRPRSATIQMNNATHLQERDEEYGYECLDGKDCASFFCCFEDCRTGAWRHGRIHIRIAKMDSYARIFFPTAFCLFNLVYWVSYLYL
Method: (§1) FIG. 1. […] Efficacy profile on GABAA receptors in oocyte two-electrode voltage clamp recordings. […] Peak currents were read and normalized to a maximal effective concentration of diazepam, where after data points were fitted to the empirical Hill equation by non-linear regression, n=3−14.
(§2) The assay reported here is performed to determine the in vitro functional potency as well as efficacy of PAMs at the major brain GABAA receptors subtypes. To establish this, a full concentration response profile was determined at a GABA concentration giving rise to 5-20% of the maximal GABA-evoked response from α1β2γ2, α2β2γ2, α3β2γ2 and α5β2γ2 receptors expressed in Xenopus laevis oocytes.
Collagenase defolliculated X. laevis oocytes were obtained from Ecocyte Bioscience. For injection, the oocytes were placed in a custom designed chamber in Mod. Barth's solution (90 mM NaCl, 1 mM KCl, 0.66 mM NaNO3, 2.4 mM NaHCO3, 0.74 mM CaCl2, 0.82 mM MgCl2, 100 μg/ml Gentamicin and 10 mM HEPES adjusted to pH 7.55) and injected with 25-50 nl of cRNA mixture using a Pico Pump (WPI). The cRNA mixture contain GABAAR subunits αx, β2, and γ2s in the ratio of 3:1:3 and in a total concentration of 0.5 μg/μl. Following injection, oocytes were maintained at 18° C. in Mod.
Electrophysiological responses from X. laevis oocytes were measured using the two-electrode voltage clamp technique. Single oocytes were placed in custom designed recording chambers that were continuously perfused with ≥2 ml/min OR2 (90 mM NaCl, 2.5 mM KCl, 2.5 mM CaCl2, 1 mM MgCl2 and 5 mM HEPES pH 7.4). […] The oocyte was impaled using manual micro manipulators and allowed to equilibrate at a holding potential of −50 mV to −80 mV for at least 1 min to ensure a maximal leak current of 100 nA before the experiment was initiated. […] Currents were amplified by a Geneclamp 500B amplifier (Axon), low-pass filtered at 20 Hz, digitized at 200 Hz by a Digidata 1322A (Axon) and then recorded as well as analyzed by a PC (Compaq Evo) using the pClamp9 suite (Axon). […]

[2] = test system: male Sprague Dawley (SD) rats; assay: Exploratory locomotor activity in male SD rats; format: in vivo, rat; conditions: up to 30 mg/kg per oral, 120 minutes prior, recorded 30 minutes
Method: FIG. 4. […] The activity of the rats was automatically registered for 30 minutes (TSE MoTil, Germany).
Male SD rats (180-250 grams, NTac:SD, Taconic, Denmark)
2 hrs post dosing, the rats were placed individually into novel standard home cages with reduced sawdust bedding. The cages were placed in frames equipped with photocells and beams allowing for automatic recording of locomotor behaviour (TSE MoTil, Germany). The exploratory locomotor activity was recorded for 30 minutes.

[3] = target: T2, α5β2γ2 GABAA receptors expressed in Xenopus laevis oocytes (Homo sapiens, UniProt P18507+P31644); assay: Oocyte two-electrode voltage clamp electrophysiology, α5β2γ2; format: cell-based; conditions: GABA at EC10-20; normalized to maximal effective concentration of diazepam
T2 construct: expressed in transfected cells; host or cells: Xenopus laevis oocytes injected with cRNA
T2 sequence (P31644 32-462): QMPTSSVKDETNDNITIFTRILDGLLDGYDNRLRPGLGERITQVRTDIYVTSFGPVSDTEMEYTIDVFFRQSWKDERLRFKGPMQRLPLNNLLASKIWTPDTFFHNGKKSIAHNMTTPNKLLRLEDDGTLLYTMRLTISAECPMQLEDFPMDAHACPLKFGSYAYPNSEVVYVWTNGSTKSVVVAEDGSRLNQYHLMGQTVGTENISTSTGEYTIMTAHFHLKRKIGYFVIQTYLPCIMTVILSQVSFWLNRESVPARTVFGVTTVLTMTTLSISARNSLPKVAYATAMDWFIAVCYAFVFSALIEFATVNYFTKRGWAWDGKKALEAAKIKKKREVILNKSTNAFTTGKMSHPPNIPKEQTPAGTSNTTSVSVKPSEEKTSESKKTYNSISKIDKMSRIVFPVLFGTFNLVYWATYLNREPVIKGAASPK
T2 sequence (P47870 25-512 partner limits assumed): as the sequence (P47870 25-512 partner limits assumed) above
T2 sequence (P18507 40-467 isoform P18507-1 limits assumed): as the sequence (P18507 40-467 isoform P18507-1 limits assumed) above
Method: as §1, §2
(§3) Collagenase defolliculated X. laevis oocytes were obtained from Ecocyte Bioscience. For injection, the oocytes were placed in a custom designed chamber in Mod. […]
(§4) Electrophysiological responses from X. laevis oocytes were measured using the two-electrode voltage clamp technique. […] Currents were amplified by a Geneclamp 500B amplifier (Axon), low-pass filtered at 20 Hz, digitized at 200 Hz by a Digidata 1322A (Axon) and then recorded as well as analyzed by a PC (Compaq Evo) using the pClamp9 suite (Axon). […]

[4] = test system: Chronic Constriction Injury (CCI) in Rats; assay: Mechanical allodynia in chronic constriction injury (CCI) rats, acute and chronic dosing; conditions: for paw withdrawal threshold vs vehicle after chronic dosing: tested day 8
Method: Morphine was administered subcutaneously. […] The animals were tested after 14 days of surgery. **p<0.01,****p<0.0001 vs vehicle, Two-way ANOVA Fisher's LSD posttest, n=7−9.
Male SPRD rats (Taconic), 140-160 grams at surgery
The sciatic nerve was exposed at the mid-thigh level proximal to the sciatic trifurcation. Four chromic gut ligatures (4/0) (Ethicon, New Brunswick, N.J.) were tied loosely around the nerve, 1-2 mm apart, such that the vascular supply was not overtly compromised. The overlying muscle was closed in layers with 4/0 synthetic absorbable surgical suture.
Morphine-hydrochloride: 6 mg/kg free base weight, 1 ml/kg, subcutaneous administration. Pretreatment: 30 minutes
Morphine hydrochloride: 6 mg/kg free base weight, 1 ml/kg, subcutaneous administration once daily for 7 days.

[5] = target: T3, recombinant GABA α3β2γ2 receptors (HEK-293 cell membranes) (Homo sapiens, UniProt P18507+P34903); assay: In vitro inhibition of 3H-flumazenil binding; conditions: 3H-flumazenil 1 nM, 40 min at 2° C., HEK-293 α3β2γ2 membranes
T3 construct: expressed in transfected cells; membranes
T3 sequence (P34903 29-492): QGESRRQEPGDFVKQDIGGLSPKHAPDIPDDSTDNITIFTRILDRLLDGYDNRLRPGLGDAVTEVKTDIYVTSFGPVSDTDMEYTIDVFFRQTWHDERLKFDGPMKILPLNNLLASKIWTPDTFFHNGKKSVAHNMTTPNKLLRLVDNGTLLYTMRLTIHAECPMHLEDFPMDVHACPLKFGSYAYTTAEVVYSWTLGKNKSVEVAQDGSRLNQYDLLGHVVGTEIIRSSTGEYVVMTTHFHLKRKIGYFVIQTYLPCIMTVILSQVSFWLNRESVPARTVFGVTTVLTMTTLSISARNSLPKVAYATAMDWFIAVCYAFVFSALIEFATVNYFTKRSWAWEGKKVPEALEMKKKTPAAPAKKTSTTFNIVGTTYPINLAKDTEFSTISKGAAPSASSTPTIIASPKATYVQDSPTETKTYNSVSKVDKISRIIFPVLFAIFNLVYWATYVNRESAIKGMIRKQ
T3 sequence (P47870 25-512 partner limits assumed): as the sequence (P47870 25-512 partner limits assumed) above
T3 sequence (P18507 40-475): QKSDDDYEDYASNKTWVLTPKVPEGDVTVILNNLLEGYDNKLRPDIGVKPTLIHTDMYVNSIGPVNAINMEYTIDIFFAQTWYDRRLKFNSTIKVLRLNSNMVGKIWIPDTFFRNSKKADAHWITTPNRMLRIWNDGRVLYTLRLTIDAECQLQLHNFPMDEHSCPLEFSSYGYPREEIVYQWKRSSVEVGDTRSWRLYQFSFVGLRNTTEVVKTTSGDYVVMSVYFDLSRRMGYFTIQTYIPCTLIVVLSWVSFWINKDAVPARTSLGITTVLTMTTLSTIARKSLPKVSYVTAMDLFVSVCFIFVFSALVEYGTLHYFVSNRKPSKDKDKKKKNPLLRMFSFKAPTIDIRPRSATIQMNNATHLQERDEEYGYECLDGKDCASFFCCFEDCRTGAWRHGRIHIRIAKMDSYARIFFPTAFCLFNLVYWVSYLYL
Description: Specific binding is total binding minus non-specific binding.

[6] = target: T4, α2β2γ2 GABAA receptors expressed in Xenopus laevis oocytes (Homo sapiens, UniProt P18507+P47869); assay: Oocyte two-electrode voltage clamp electrophysiology, α2β2γ2; format: cell-based; conditions: GABA at EC10-20; normalized to maximal effective concentration of diazepam
T4 construct: expressed in transfected cells; host or cells: Xenopus laevis oocytes injected with cRNA
T4 sequence (P47869 29-451): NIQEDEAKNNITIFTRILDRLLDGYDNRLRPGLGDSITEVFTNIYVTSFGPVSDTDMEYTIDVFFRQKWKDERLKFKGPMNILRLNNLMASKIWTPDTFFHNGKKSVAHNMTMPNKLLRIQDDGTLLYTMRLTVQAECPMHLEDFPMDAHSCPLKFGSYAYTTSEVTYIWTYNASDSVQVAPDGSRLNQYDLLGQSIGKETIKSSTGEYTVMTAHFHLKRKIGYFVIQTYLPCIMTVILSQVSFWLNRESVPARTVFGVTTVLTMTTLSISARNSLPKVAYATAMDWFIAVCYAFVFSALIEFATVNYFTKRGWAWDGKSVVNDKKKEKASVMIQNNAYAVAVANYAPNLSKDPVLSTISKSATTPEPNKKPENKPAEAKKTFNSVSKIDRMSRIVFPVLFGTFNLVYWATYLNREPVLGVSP
T4 sequence (P47870 25-512 partner limits assumed): as the sequence (P47870 25-512 partner limits assumed) above
T4 sequence (P18507 40-467 isoform P18507-1 limits assumed): as the sequence (P18507 40-467 isoform P18507-1 limits assumed) above
Method: as §1, §2, §3, §4

[7] = target: T5, α3β2γ2 GABAA receptors expressed in Xenopus laevis oocytes (Homo sapiens, UniProt P18507+P34903); assay: Oocyte two-electrode voltage clamp electrophysiology, α3β2γ2; format: cell-based; conditions: GABA at EC10-20; normalized to diazepam
T5 construct: expressed in transfected cells; host or cells: Xenopus laevis oocytes injected with cRNA
T5 sequence (P34903 29-492): as the sequence (P34903 29-492) above
T5 sequence (P47870 25-512 partner limits assumed): as the sequence (P47870 25-512 partner limits assumed) above
T5 sequence (P18507 40-467 isoform P18507-1 limits assumed): as the sequence (P18507 40-467 isoform P18507-1 limits assumed) above
Method: as §1, §2, §3, §4

[8] = test system: Compound 48/80 induced scratching in male CD-1 mice; assay: Compound 48/80 induced scratching in male CD-1 mice
Method: Male CD-1 mice (22-30 g) (InterVivo Solutions, Canada)
All treatments were dosed at a dosing volume of 10 ml/kg.
Visual observation of bouts of scratching over 30 minutes. Visual assessments were performed blinded to treatment.

[9] = test system: male Sprague Dawley (SD) rats; assay: Rotarod performance in male SD rats; conditions: 10 mg/kg per oral, 60 minutes before test
Method: Rats were trained on the rota rod for two days at 4-40 rpm for 5 min before evaluating the drug effects on the 3rd day.
Male SD rats (150-180 grams, NTac:SD, Taconic, Denmark)
The rats were trained on an accelerating rotarod (4-40 rpm, PanLab), one trial of 5 minutes per day, for two days prior to drug testing. Only rats that were able to stay on the rotating rod for more than 90 seconds after two days of training were included in the study. At the day of testing, the rats were placed on the rotating rod, accelerating with a speed of 4-40 rpm/5 minutes with the minimum time possible to spend on the rod designated as 0 s, and the maximum time spent on the rod set at 300 s.

With COc1ncc(-c2cccc(-n3cnc4cc(C(C)(C)O)cnc43)c2)c(OC)n1 [Compound 1, 2-(3-(3-(2,4-dimethoxypyrimidin-5-yl)phenyl)-3H-imidazo[4,5-b]pyridin-6-yl)propan-2-ol] as the compound, how does the “modulation of GABA-mediated currents, α1β2γ2 receptor” value (from here on “modulation of GABA-mediated currents”) [1] read?
The value was “no activation”.

What about the “modulation of GABA-mediated currents” value ([1]; listed as compound 1) of the same compound?
The value was “close to zero”.

What about the exploratory locomotor activity [2] of the same compound?
Its exploratory locomotor activity is “did not exert any effect; also recorded: did not affect exploratory locomotor activity”.

And the “activation of GABAA-α5 containing receptors” value [3]?
Its value is “less than 10%”.

And the “paw withdrawal threshold vs vehicle after chronic dosing” value ([4]; 1, 3, 10 mg/kg per oral once daily for 7 days)?
Its value is “significant enhancement of the paw withdrawal threshold was maintained”.

What about the “paw withdrawal threshold vs vehicle after chronic dosing” value ([4]; 1, 3, 10 mg/kg per oral once daily for 7 days, listed as compound 1) of the same compound?
The value was “significant analgesic effect of all 3 doses were maintained”.

And the “paw withdrawal threshold vs vehicle” value ([4]; acute, 1 mg/kg per oral, 2 hrs and 3 hrs post treatment)?
The value was “significantly enhanced paw withdrawal threshold”.

And the “paw withdrawal threshold vs vehicle” value ([4]; acute, 3 mg/kg per oral, 2 hrs and 3 hrs post treatment)?
The value was “significantly enhanced paw withdrawal threshold”.

What about the “paw withdrawal threshold vs vehicle” value ([4]; acute, 10 mg/kg per oral) of the same compound?
Its value is “just failed to reach statistical significance”.

What about the “minimal effective dose, reversal of mechanical allodynia” value ([4]; acute, oral administration, CCI rats) of the same compound?
Its value is “less than or equal to 1 mg/kg”.

What about the IC50 [5] of the same compound?
Its IC50 is 38 nM.

What about the Ki [5] of the same compound?
Its Ki is 15 nM.

And the CI (IV 0.5 mg/kg, rat)?
Its CI is 6.33 mL/min/kg.

And the “concentration after 8 h” value (dose 1 mg/kg (Table 3))?
The value was “*AUC calculated 0-8 h, concentration after 8 h was 149 ng/ml”.

What about the “activation of GABAA-α2 containing receptors” value [6] of the same compound?
Its value is “less than 10%”.

And the “potentiation of GABA-mediated currents in GABAA-α3 containing receptors” value [7]?
Its value is “preferential potentiation”.

And the “bouts of scratching over 30 minutes vs vehicle” value ([8]; 3, 10, 30 mg/kg oral gavage, 30 min prior, significant at 10 and 30 mg/kg)?
Its value is “significantly relieved itching; also recorded: dose dependently reduced”.

What about the “minimal effective dose, bouts of scratching” value ([8]; oral gavage 30 min before compound 48/80) of the same compound?
Its value is 10 mg/kg.

For COc1ncc(-c2cccc(-n3cnc4cc(C(C)(C)O)ccc43)c2)c(OC)n1 [Compound 9, reference compound], which “modulation of GABA-mediated currents” value [1] is on record?
The value was “clearly negative”.

With CN1C(=O)CN=C(c2ccccc2)c2cc(Cl)ccc21 [Diazepam] as the compound, how does the “latency to fall off accelerating rotarod” value [9] read?
The value was “significantly shortened the time to fall off the rod; also recorded: significantly shortened the latency to fall off”.

Which “paw withdrawal threshold vs vehicle after chronic dosing” value ([4]; 6 mg/kg subcutaneous once daily for 7 days, hydrochloride) does the source give for CN1CC[C@]23c4c5ccc(O)c4O[C@H]2[C@@H](O)C=C[C@H]3[C@H]1C5.Cl [Morphine hydrochloride, reference compound] here?
Its value is “completely abolished the allodynic effect; also recorded: completely lost”.

And the “paw withdrawal threshold vs vehicle” value ([4]; acute, 6 mg/kg subcutaneous)?
Its value is “significantly enhanced paw withdrawal threshold”.
